Assay results published in US20200055891A1, “NOVEL PHOSPHOTRIAZOLE MRNA 5'-END CAP ANALOGS, COMPOSITION COMPRISING THE SAME, RNA MOLECULE INCORPORATING THE SAME, USES THEREOF AND METHOD OF SYNTHESIZING RNA MOLECULE, PROTEIN OR PEPTIDE” (UNIWERSYTET WARSZAWSKI, priority 2016, published 2020).
Counter-ions that a name gives are not always drawn.

Assays:
[1] = Hydrolysis in D2O seen in NMR spectra; assay type: physicochemical; conditions: dissolved in D2O just before NMR measurement; given if higher than 5%
Procedure: Some cap analogues hydrolyzed in D2O gradually. Although pure compounds (see HPLC profiles, Supporting Information 2) were dissolved in D2O just before measurements, the spectra indicated some level of hydrolysis. % of hydrolysis is provided along with compound characterization data, if higher than 5%.

[2] = system: Rabbit Reticulocyte Lysate; experiment: Translation efficiency of capped firefly luciferase mRNA in Rabbit Reticulocyte Lysate System; assay type: biochemical; conditions: relative, m^7GpppG = 1
Procedure: The reaction was quenched by addition of 2 μl of 0.5 M EDTA pH 8.0 and purified with NucleoSpin RNA Clean-up XS kit (Macherey-Nagel) to afford luciferase-coding RNA strands capped with appropriate cap analogue.
For each capped luciferase-coding RNA four diluted solutions were prepared—3.0 ng/μl, 1.5 ng/μl, 0.75 ng/μl, 0.375 ng/μl. Translation studies were performed using Rabbit Reticulocyte Lysate System (Promega). 9 μl of a mixture containing Rabbit Reticulocyte Lysate (4 μl), Amino Acid Mixture Minus Leucine (0.05 μl of 1 mM solution), Amino Acid Mixture Minus Methionine (0.05 μl of 1 mM solution), potassium acetate (1.9 μl of 1 M solution), MgCl2 (0.4 μl of 25 mM solution) and 2.1 μl of water was incubated at 30° C. for 1 h after which 1 μl of appropriate luciferase-coding RNA solution was added and incubation of the reaction was continued at 37° C. for another hour. The reaction was stopped by freezing in liquid nitrogen.
Translation efficiency was determined using Luciferase Reporter System (Promega). The samples were defrosted just before the experiment. To every sample 50 μl of Luciferase Assay Reagent was added just before measurement of luminescence on Synergy H1 Microplate Reader (Bio Tek). The measurement were performed for every four samples independently due to low stability of luminescence signal. The results are presented on. FIG. 4 as proportions between regression coefficients of linear relationships between capped luciferase-coding RNA concentration in translation reaction (300 pg/μl, 150 pg/μl, 75 pg/μl, 37.5 pg/μl) and corresponding luminescence signal.

[3] = target: T1, SP6 RNA polymerase (Enterobacteria phage SP6, UniProt P06221); experiment: Capping efficiency: incorporation of cap analogues at the 5′ end of short transcripts by in vitro transcription; assay type: biochemical; conditions: 1.25 mM cap analogue, 0.125 mM GTP
T1 construct: purchased New England BioLabs
T1 sequence (P06221 1-874): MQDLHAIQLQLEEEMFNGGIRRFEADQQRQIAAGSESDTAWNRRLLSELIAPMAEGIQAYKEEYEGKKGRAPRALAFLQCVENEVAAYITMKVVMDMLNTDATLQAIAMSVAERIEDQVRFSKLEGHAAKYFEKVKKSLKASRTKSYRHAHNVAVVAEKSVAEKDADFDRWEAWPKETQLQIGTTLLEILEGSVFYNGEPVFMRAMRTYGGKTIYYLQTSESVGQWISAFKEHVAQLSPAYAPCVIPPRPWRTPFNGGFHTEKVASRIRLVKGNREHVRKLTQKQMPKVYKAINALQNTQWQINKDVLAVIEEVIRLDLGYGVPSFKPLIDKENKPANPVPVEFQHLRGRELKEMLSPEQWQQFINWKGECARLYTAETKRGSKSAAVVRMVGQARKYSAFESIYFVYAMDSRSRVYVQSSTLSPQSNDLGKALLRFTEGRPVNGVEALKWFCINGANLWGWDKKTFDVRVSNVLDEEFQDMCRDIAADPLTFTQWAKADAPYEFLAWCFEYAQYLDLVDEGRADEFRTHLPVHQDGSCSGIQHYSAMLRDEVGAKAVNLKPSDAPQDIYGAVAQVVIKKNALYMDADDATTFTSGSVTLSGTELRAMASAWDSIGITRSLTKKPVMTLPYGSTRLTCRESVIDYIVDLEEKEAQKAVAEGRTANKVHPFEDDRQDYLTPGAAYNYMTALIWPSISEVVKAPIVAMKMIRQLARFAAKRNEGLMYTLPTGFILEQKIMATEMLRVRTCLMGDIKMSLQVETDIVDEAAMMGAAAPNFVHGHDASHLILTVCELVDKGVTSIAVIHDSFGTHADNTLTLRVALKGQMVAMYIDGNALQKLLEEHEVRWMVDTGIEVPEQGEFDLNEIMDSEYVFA
Procedure: Prior to in vitro transcription annealing of a template was performed. DNA1 (SEQ ID NO: 1) and DNA2 (SEQ ID NO: 2) (20 μM each) were incubated in the presence of 4 mM Tris-HCl pH 8.0, 15 mM NaCl and 0.1 mM EDTA at 95° C. for 2 min and then at room temperature for 30 min. After 10-fold dilution the mixture was directly used for in vitro transcription.
The reaction was quenched by addition of 2 μl of 0.5 M EDTA pH 8.0 and purified with RNA Clean&Concentrator-5 kit (Zymo Research) to afford capped RNA1 (SEQ ID NO: 4) strands.
To reduce heterogeneity, each capped RNA1 (11.42 ng/μl, ca. 1 μM) was incubated in presence of 50 mM Tris-HCl pH 8.0, 50 mM MgCl2, RiboLock RNase Inhibitor (ThermoFisher Scientific) (2.0 U/μl) and DNA3 (SEQ ID NO: 3) (1 μM) at 37° C. for 1 h to afford RNA2 (SEQ ID NO: 5).^44 The reaction was stopped by freezing in liquid nitrogen and directly analyzed by PAGE (FIG. 3).
Relative bands intensity was determined using CLIQS v1.0 program.

[4] = Stability studies in buffers pH 3-9, RP HPLC; assay type: physicochemical; conditions: room temperature; for % of remaining cap, Bufor pH 7, 4 h / % of remaining cap, Bufor pH 7, 24 h: 0.1 M HEPES pH 7.0, 20 μM; for % of remaining cap, Bufor pH 5, 4 h / % of remaining cap, Bufor pH 5, 24 h: 0.1 M acetate buffer pH 5.0, 20 μM; for % of remaining cap, Bufor pH 9, 4 h / % of remaining cap, Bufor pH 9, 24 h: 0.1 M borate buffer pH 9.0, 20 μM; for % of remaining cap, Bufor pH 3, 4 h / % of remaining cap, Bufor pH 3, 24 h: 0.1 M formate buffer pH 3.0, 20 μM
Procedure: Analogues m2^7,2′-OGppp-triazole-C2H4NHppG, m2^7,2′-OGppp-triazole-C2H4OppG, m2^7,2′-OGppp-triazole-C2H4OpG, m2^7,2′-OGpp-triazole-C2H4OppG were incubated in sealed vials at 20 μM and at room temperature in four different buffers: 0.1 M formate buffer pH 3.0, 0.1 M acetate buffer pH 5.0, 0.1 M HEPES pH 7.0 and 0.1 M borate buffer pH 9.0. […] The starting compound peak area was determined for each time-point and % of remaining cap was calculated in reference to the time-point 0 h.

[N-]=[N+]=NCCNP(=O)(O)OP(=O)(O)OC[C@H]1O[C@@H](n2cnc3c(=O)[nH]c(N)nc32)[C@H](O)[C@@H]1O [GppNHC2H4N3, N-(2-azidoethyl) β-phosphoramidate guanosine diphosphate ammonium salt]
hydrolysis in D2O [1]: 15%

Nc1nc2c(ncn2[C@@H]2O[C@H](COP(=O)(O)OP(=O)(O)OP(=O)(O)OC[C@H]3O[C@@H](n4cnc5c(=O)[nH]c(N)nc54)[C@H](O)[C@@H]3O)[C@@H](O)[C@H]2O)c(=O)[nH]1 [GpppG, reference compound]
Translation efficiency [2]: 0.058 ± 0.008 | Capping efficiency [3]: 92%

COC1C(O)[C@@H](COP(=O)(O)OP(=O)(O)OP(=O)([O-])c2cn(CCNP(=O)(O)OP(=O)(O)OC[C@H]3O[C@@H](n4cnc5c(=O)[nH]c(N)nc54)C(O)C3O)nn2)O[C@H]1n1c[n+](C)c2c(=O)[nH]c(N)nc21 (stereo partly shown) [m2^7,2′-OGppptC2H4NHppG, m2^7,2′-OGppp-triazole-C2H4NHppG]
Translation efficiency [2]: 2.226 ± 0.399 | Capping efficiency [3]: 43.0% | % of remaining cap, Bufor pH 7, 4 h [4]: 0% | % of remaining cap, Bufor pH 7, 24 h [4]: 0% | % of remaining cap, Bufor pH 5, 4 h [4]: 0% | % of remaining cap, Bufor pH 5, 24 h [4]: 0% | % of remaining cap, Bufor pH 9, 4 h [4]: 0.5% | % of remaining cap, Bufor pH 9, 24 h [4]: 3.0% | % of remaining cap, Bufor pH 3, 4 h [4]: 19.0% | % of remaining cap, Bufor pH 3, 24 h [4]: 72.9%

COC1C(O)[C@@H](COP(=O)(O)OP(=O)(O)OP(=O)([O-])c2cn(CCOP(=O)(O)OC[C@H]3O[C@@H](n4cnc5c(=O)[nH]c(N)nc54)C(O)C3O)nn2)O[C@H]1n1c[n+](C)c2c(=O)[nH]c(N)nc21 (stereo partly shown) [m2^7,2′-OGppptC2H4OpG, m2^7,2′-OGppp-triazole-C2H4OpG]
Translation efficiency [2]: 2.773 ± 0.293 | Capping efficiency [3]: 47.6% | % of remaining cap, Bufor pH 7, 4 h [4]: 0% | % of remaining cap, Bufor pH 7, 24 h [4]: 0% | % of remaining cap, Bufor pH 5, 4 h [4]: 0% | % of remaining cap, Bufor pH 5, 24 h [4]: 0% | % of remaining cap, Bufor pH 9, 4 h [4]: 0.1% | % of remaining cap, Bufor pH 9, 24 h [4]: 1.2% | % of remaining cap, Bufor pH 3, 4 h [4]: 0% | % of remaining cap, Bufor pH 3, 24 h [4]: 0%

COC1C(O)[C@@H](COP(=O)(O)OP(=O)(O)OP(=O)([O-])c2cn(CCOP(=O)(O)OP(=O)(O)OC[C@H]3O[C@@H](n4cnc5c(=O)[nH]c(N)nc54)C(O)C3O)nn2)O[C@H]1n1c[n+](C)c2c(=O)[nH]c(N)nc21 (stereo partly shown) [m2^7,2′-OGppptC2H4OppG, m2^7,2′-OGppp-triazole-C2H4OppG]
Translation efficiency [2]: 1.749 ± 0.263 | Capping efficiency [3]: 38.0% | % of remaining cap, Bufor pH 7, 4 h [4]: 0% | % of remaining cap, Bufor pH 7, 24 h [4]: 0% | % of remaining cap, Bufor pH 5, 4 h [4]: 0% | % of remaining cap, Bufor pH 5, 24 h [4]: 0% | % of remaining cap, Bufor pH 3, 4 h [4]: 0% | % of remaining cap, Bufor pH 3, 24 h [4]: 0%

COC1C(O)[C@@H](COP(=O)(O)OP(=O)([O-])c2cn(CCOP(=O)(O)OP(=O)(O)OC[C@H]3O[C@@H](n4cnc5c(=O)[nH]c(N)nc54)C(O)C3O)nn2)O[C@H]1n1c[n+](C)c2c(=O)[nH]c(N)nc21 (stereo partly shown) [m2^7,2′-OGpptC2H4OppG, m2^7,2′-OGpp-triazole-C2H4OppG]
Translation efficiency [2]: 1.675 ± 0.168 | Capping efficiency [3]: 44.2%

C[n+]1cn([C@@H]2O[C@H](COP(=O)(O)NCCn3cc(CP(=O)(O)OP(=O)([O-])OC[C@H]4O[C@@H](n5cnc6c(=O)[nH]c(N)nc65)C(O)C4O)nn3)C(O)C2O)c2nc(N)[nH]c(=O)c21 (stereo partly shown) [m^7GpNHC2H4tCH2ppG, m^7GpNHC2H4-triazole-CH2ppG]
Translation efficiency [2]: 0.085 ± 0.017 | hydrolysis in D2O [1]: 11% | Capping efficiency [3]: 47%

C[n+]1cn([C@@H]2O[C@H](COP(=O)(O)NCCn3cc(CP(=O)(O)OP(=O)([O-])OP(=O)(O)OC[C@H]4O[C@@H](n5cnc6c(=O)[nH]c(N)nc65)C(O)C4O)nn3)C(O)C2O)c2nc(N)[nH]c(=O)c21 (stereo partly shown) [m^7GpNHC2H4tCH2pppG, m^7GpNHC2H4-triazole-CH2pppG]
Translation efficiency [2]: 0.060 ± 0.004 | hydrolysis in D2O [1]: 7% | Capping efficiency [3]: 62%

C[n+]1cn([C@@H]2O[C@H](COP(=O)(O)NCCn3cc(P(=O)([O-])OP(=O)(O)OC[C@H]4O[C@@H](n5cnc6c(=O)[nH]c(N)nc65)C(O)C4O)nn3)C(O)C2O)c2nc(N)[nH]c(=O)c21 (stereo partly shown) [m^7GpNHC2H4tppG, m^7GpNHC2H4-triazole-ppG]
Translation efficiency [2]: 0.075 ± 0.009 | hydrolysis in D2O [1]: 14% | Capping efficiency [3]: 57%

C[n+]1cn([C@@H]2O[C@H](COP(=O)(O)OP(=O)(O)CCc3cn(CCNP(=O)(O)OP(=O)([O-])OC[C@H]4O[C@@H](n5cnc6c(=O)[nH]c(N)nc65)[C@@H](O)C4O)nn3)[C@H](O)C2O)c2nc(N)[nH]c(=O)c21 (stereo partly shown) [m^7GppC2H4tC2H4NHppG, m^7GppC2H4-triazole-C2H4NHppG]
Translation efficiency [2]: 0.085 ± 0.017 | hydrolysis in D2O [1]: 10% | Capping efficiency [3]: 48.8%

C[n+]1cn([C@@H]2O[C@H](COP(=O)([O-])OP(=O)(O)Cc3cn(CCNP(=O)(O)OC[C@H]4O[C@@H](n5cnc6c(=O)[nH]c(N)nc65)C(O)C4O)nn3)C(O)C2O)c2nc(N)[nH]c(=O)c21 (stereo partly shown) [m^7GppCH2tC2H4NHpG, m^7GppCH2-triazole-C2H4NHpG]
Translation efficiency [2]: 0.155 ± 0.019 | Capping efficiency [3]: 54%

C[n+]1cn([C@@H]2O[C@H](COP(=O)(O)OP(=O)([O-])c3cn(CCNP(=O)(O)OC[C@H]4O[C@@H](n5cnc6c(=O)[nH]c(N)nc65)C(O)C4O)nn3)C(O)C2O)c2nc(N)[nH]c(=O)c21 (stereo partly shown) [m^7GpptC2H4NHpG, m^7Gpp-triazole-C2H4NHpG]
Translation efficiency [2]: 0.50 ± 0.06 | Capping efficiency [3]: 56.8%
